# Measured values as given in patent US11352399B2, “Peptide for toll-like receptor (TLR) inhibition and pharmaceutical composition comprising same” (GENESEN CO., LTD., priority 2017, dated 2022).
# Legend:
# [1] = tested on: LPS-induced sepsis model BALB/c mice; assay: Survival rate in LPS-induced sepsis model; assay type: in vivo, mouse
# Procedure: The control was injected with the same volume of PBS. The results are illustrated in FIG. 18.
# [2] = target: T1, BB-loop and C-terminal region of the TIR domain of TLR4 (Homo sapiens, UniProt O00206); assay: Surface plasmon resonance (SPR) assay; assay type: binding; conditions: conclusion of Experimental Example 8; no SPR constants printed
# T1 construct: purchased Peptron, Inc; host or cells: chemical synthesis
# Procedure: Surface plasmon resonance assay was performed using a ProteOn XPR36 instrument (Bio-Rad Laboratories, Inc.) with a ProteOn NLC sensor chip. Specifically, a synthetic peptide encoding BB-loop ([…]) (SEQ ID NO: 54) and C-terminal region ([…]) (SEQ ID NO: 55) of the TIR domain was immobilized on the surface of the NLC sensor chip using NeutrAvidin bound to the GLC polymer layer. For a control, PBS supplemented with 0.05% Tween 20, which is a running buffer, was flowed. […] After the measurement, the surface of the sensor chip was regenerated using 0.85% phosphoric acid or PBST. […] The equilibrium dissociation constant KD was calculated using the equation KD=Kd/Ka.
# TLR3 = target: T2, TLR3 (Mus musculus, UniProt Q99MB1); assay: TNF-α and IFN-β secretion in RAW 264.7 cells with Poly(I:C); assay type: cell-based
# T2 construct: host or cells: RAW 264.7
# T2 sequence (Q99MB1 26-905): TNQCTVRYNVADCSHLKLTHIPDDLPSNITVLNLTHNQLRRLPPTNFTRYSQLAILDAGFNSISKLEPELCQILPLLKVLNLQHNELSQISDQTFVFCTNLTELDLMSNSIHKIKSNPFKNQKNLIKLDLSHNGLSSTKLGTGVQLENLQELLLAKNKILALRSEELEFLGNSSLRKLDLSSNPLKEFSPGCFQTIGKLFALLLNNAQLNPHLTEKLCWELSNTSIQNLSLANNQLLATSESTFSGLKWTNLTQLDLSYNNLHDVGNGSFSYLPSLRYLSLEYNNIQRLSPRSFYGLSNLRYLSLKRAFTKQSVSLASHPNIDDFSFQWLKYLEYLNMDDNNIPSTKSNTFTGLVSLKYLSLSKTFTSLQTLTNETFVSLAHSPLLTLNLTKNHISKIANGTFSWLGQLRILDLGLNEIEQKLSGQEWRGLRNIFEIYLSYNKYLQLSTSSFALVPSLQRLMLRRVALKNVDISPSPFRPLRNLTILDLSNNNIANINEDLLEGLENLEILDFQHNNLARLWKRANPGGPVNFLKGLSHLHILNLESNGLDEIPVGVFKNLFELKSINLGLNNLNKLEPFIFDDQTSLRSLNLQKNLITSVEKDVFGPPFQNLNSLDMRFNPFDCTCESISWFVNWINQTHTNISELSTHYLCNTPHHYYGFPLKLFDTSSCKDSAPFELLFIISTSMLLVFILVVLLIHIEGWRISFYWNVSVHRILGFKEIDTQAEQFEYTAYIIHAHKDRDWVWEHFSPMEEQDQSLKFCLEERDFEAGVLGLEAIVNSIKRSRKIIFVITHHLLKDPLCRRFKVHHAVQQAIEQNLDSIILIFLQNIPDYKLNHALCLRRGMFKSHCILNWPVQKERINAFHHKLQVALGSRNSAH
# [3] = tested on: liver tissues of C57BL/6J mice; assay: Cytokine expression in liver tissue of LPS-treated mice (Western blotting); assay type: in vivo, mouse; conditions: LPS and TIP1, 2 hours
# [4] = tested on: renal tissue of LPS-treated mice; assay: Renal apoptosis by TUNEL staining in LPS-treated mice; assay type: in vivo, mouse; conditions: TIP1 and LPS, 24 hours
# Procedure: Subsequently, renal tissues were isolated and weighed using an electronic balance (ER-180A, A&D Company, Tokyo, Japan); and then, cut into sagittal planes to make slices. The slices were left overnight in a 10% formalin solution, and then solidified by pouring of paraffin wax. The resultant was made into thin sections of 4 μm using a microtome and fixed. […] The images were analyzed using Zen 2009 software (Carl Zeiss MicroImaging GmbH.). The results are illustrated in FIG. 17.
# [5] = tested on: collagen-induced arthritis (CIA) model DBA/1J mice; assay: Collagen-induced arthritis (CIA) model; assay type: in vivo, mouse
# Procedure: Specifically, chicken collagen type II (Sigma-Aldrich Co. LLC) and complete Freund's adjuvant (Sigma-Aldrich Co. LLC.) were mixed at 1:1 and emulsified. Then, 100 μg of the emulsified collagen solution was injected intradermally into the mouse tail to induce primary immunization, which was designated day 0. After 14 days of the primary immunization, the emulsified collagen solution was injected again intradermally into the mouse tail to induce secondary immunization (boosting).
# These plans included a total of seven experimental groups (n=8) and named as follows: (1) Non-treated, normal group (normal); (2) control (vehicle-treated) (CIA, n=8); (3) 2.5 nmol/g TIP1-treated group (CIA-TIP1 (2.5 nmol/g)); (4) 5 nmol/g TIP1-treated group (CIA-TIP1 (5 nmol/g)); (5) 10 nmol/g TIP1-treated group (CIA-TIP1 (10 nmol/g)); (6) 5 μg/g prednisolone (conventional therapeutic agent for arthritis)-treated group (CIA-prednisolone (5 μg/g)); (7) 10 nmol/g TIP1-treated group in post-arthritis phase (PAP) (PAP CIA-TIP1 (10 nmol/g)). TIP1 and prednisolone were dissolved in saline and injected intraperitoneally. Then, changes in behavioral development and disorders such as apparent symptoms and body weight, mouse squeaking, foot volume, and arthritis index were analyzed. The results are illustrated in FIGS. 19(a) and 19(b) and 20(a)-20(d).
# Then, the mice were sacrificed on day 45 and joint tissues were sampled. Subsequently, 3D images and bone mineral density (BMD) of the joint tissues were analyzed through micro-computed tomography (Micro-CT). […] The results are illustrated in FIGS. 21 and 22.
# TLR7/8 = assay: TNF-α secretion in RAW 264.7 cells with R848; assay type: cell-based, mouse
# [6] = severe sepsis model, LPS 10 μg/g, TIP1 10 nmol/g
# [7] = TIP1 2.5, 5, 10 nmol/g i.p. daily, compared with prednisolone 5 mg/kg
sequence,measurement,setting,value
RQIKIWFQNRRMKWKKSHCRVLLI (TIP1),survival rate compared with only LPS,"[1]; BALB/c mice, TIP1 10 nmol/g and LPS 5 or 10 μg/g, 5 days",increased survival rate
same,survival rate maintained for 5 days,"[1]; mild sepsis model, LPS 5 μg/g, TIP1 10 nmol/g",30%
same,decrease of survival rate after two days,[1]; [6],90%
same,survival rate maintained for one day,[1]; [6],100%
same,binding to TIR domain regions of TLR4,[2],binding to the C-terminal tail and the BB loop among the TIR domains of TLR4
same,secretion level of TNF-α,TLR3; Poly(I:C) (TLR3),decreased
same,decrease of TNF-α secretion (inhibitory effect on TLR3 signaling),"TLR3; Poly(I:C), at 50 μM",92%
same,secretion level of IFN-β,"TLR3; TIP1 together with Poly(I:C), ELISA",decreased
same,LPS-induced expression level of IL-6 in liver tissue,[3],remarkably decreased
same,LPS-induced expression level of TNF-α in liver tissue,[3],remarkably decreased
same,apoptosis in renal tissue (TUNEL-positive cells),[4],decreased
same,arthritis index increase,[5]; [7],inhibited
same,body weight loss caused by induction of arthritis,[5]; [7],inhibited
same,foot volume,[5]; [7],inhibited
same,squeaking,[5]; [7],inhibited
same,severely swollen foot (visual observation),"[5]; TIP1 i.p., FIG. 19(b)",alleviated similarly to the normal mice
same,"histopathological modification in cartilage, subchondral bone, femur, tibia and meniscus (H&E)","[5]; knee joint, once daily for 30 days",decreased
same,"bones damaged by the CIA model (Micro-CT 3D image, bone mineral density)","[5]; once daily for 30 days, sacrificed day 45",alleviated similarly to the normal mice
same,secretion level of TNF-α,TLR7/8,decreased
